Article PMC12655527, “An Investigational Study on the Role of ADME Agents’ Genetic Variation on DD217 Pharmacokinetics and Safety Profile” (Pharmaceuticals, 2025)
Read-outs that look alike come from different tables or passages of the source.

Assay: Pharmacokinetic parameters (Tmax, AUClast, Cmax) of DD217 in phase II trial patients
Type: in vivo, human (patients undergoing knee replacement surgery)
Conditions: human, plasma
Excerpt: The design, eligibility criteria, and outcomes of the phase II clinical trial evaluating the safety and tolerability of DD217 (NCT05189002, ClinicalTrials.gov) have been described previously. Briefly, this was a multicenter, double-blind, randomized, prospective phase II study designed to determine the optimal dosing regimen and to assess the safety and efficacy of DD217 for the prevention of venous thromboembolism (VTE) in patients undergoing knee replacement surgery. Patients were randomized into one of three groups: two groups received oral DD217 at doses of 40 mg or 60 mg once daily, starting on the morning of the first postoperative day, and one group received the active comparator, dalteparin sodium. The treatment duration was 14 days.
In total, data from 52 patients who underwent knee replacement surgery were included in the analysis. Of these, 34 patients received DD217 at daily doses of 40 mg (n = 16) or 60 mg (n = 18), and 18 patients received dalteparin sodium.
To characterize the pharmacokinetic profile of DD217 in our study, three parameters were assessed: Cmax, Tmax, and AUClast.

CC(=N)N(C)c1ccc(C(=O)Nc2ccc(C)cc2C(=O)Nc2ccc(Cl)cn2)cc1.Cl [DD217, N-(5-chloropyridin-2-yl)-5-methyl-2-[4-(N-methylacetimidamido)benzamido]benzamide hydrochloride]
AUC(0-t) (im, 40 mg, CYP2C9 *1/*2, *1/*3, IM (n = 6), mean ± SD, read-out: AUClast): 33.9 ± 36.2 ng·h/mL | Cmax (im, 40 mg, CYP2C9 *1/*2, *1/*3, IM (n = 6), mean ± SD, read-out: Cmax): 3.72 ± 5.61 ng/mL | Tmax (im, 40 mg, CYP2C9 *1/*2, *1/*3, IM (n = 6), mean ± SD, read-out: Tmax): 9 ± 8.17 h | AUC(0-t) (im, 40 mg, CYP2C19 *1/*2, IM (n = 1), read-out: AUClast): 48.5 ng·h/mL | Cmax (im, 40 mg, CYP2C19 *1/*2, IM (n = 1), read-out: Cmax): 3.12 ng/mL | Tmax (im, 40 mg, CYP2C19 *1/*2, IM (n = 1), read-out: Tmax): 4 h | AUC(0-t) (im, 40 mg, CYP3A *1/*22, *1/*3, IM (n = 4), mean ± SD, read-out: AUClast): 49 ± 48.7 ng·h/mL | Cmax (im, 40 mg, CYP3A *1/*22, *1/*3, IM (n = 4), mean ± SD, read-out: Cmax): 6.63 ± 8.63 ng/mL | Tmax (im, 40 mg, CYP3A *1/*22, *1/*3, IM (n = 4), mean ± SD, read-out: Tmax): 6.25 ± 3.5 h | AUC(0-t) (im, 60 mg, CYP2C9 *1/*2, *1/*3, IM (n = 5), mean ± SD, read-out: AUClast): 89.8 ± 89.3 ng·h/mL | Cmax (im, 60 mg, CYP2C9 *1/*2, *1/*3, IM (n = 5), mean ± SD, read-out: Cmax): 9.24 ± 9.59 ng/mL | Tmax (im, 60 mg, CYP2C9 *1/*2, *1/*3, IM (n = 5), mean ± SD, read-out: Tmax): 3.2 ± 2.17 h | AUC(0-t) (im, 60 mg, CYP2C19 *1/*2, *2/*2, *2/*17, IM + PM (n = 4), mean ± SD, read-out: AUClast): 32.3 ± 22.5 ng·h/mL | Cmax (im, 60 mg, CYP2C19 *1/*2, *2/*2, *2/*17, IM + PM (n = 4), mean ± SD, read-out: Cmax): 3.64 ± 3.51 ng/mL | Tmax (im, 60 mg, CYP2C19 *1/*2, *2/*2, *2/*17, IM + PM (n = 4), mean ± SD, read-out: Tmax): 9.5 ± 9.98 h | AUC(0-t) (im, 60 mg, CYP3A *1/*3, IM (n = 2), mean ± SD, read-out: AUClast): 186 ± 211 ng·h/mL | Cmax (im, 60 mg, CYP3A *1/*3, IM (n = 2), mean ± SD, read-out: Cmax): 11.9 ± 12.7 ng/mL | Tmax (im, 60 mg, CYP3A *1/*3, IM (n = 2), mean ± SD, read-out: Tmax): 3.5 ± 3.54 h | AUC(0-t) (oral, 40 mg/day, ABCB1 rs1045642 T>C, C/C (n 5), read-out: AUClast (SD)): 17.8 ng·h/mL | Cmax (oral, 40 mg/day, ABCB1 rs1045642 T>C, C/C (n 5), read-out: Cmax (SD)): 2.42 ng/mL | Tmax (oral, 40 mg/day, ABCB1 rs1045642 T>C, C/C (n 5), read-out: Tmax (SD)): 17.2 h | AUC(0-t) (oral, 40 mg/day, ABCB1 rs1045642 T>C, T/C (n 7), read-out: AUClast (SD)): 63.6 ng·h/mL | Cmax (oral, 40 mg/day, ABCB1 rs1045642 T>C, T/C (n 7), read-out: Cmax (SD)): 8.03 ng/mL | Tmax (oral, 40 mg/day, ABCB1 rs1045642 T>C, T/C (n 7), read-out: Tmax (SD)): 6 h | AUC(0-t) (oral, 40 mg/day, ABCB1 rs1045642 T>C, T/T (n 4), read-out: AUClast (SD)): 35.5 ng·h/mL | Cmax (oral, 40 mg/day, ABCB1 rs1045642 T>C, T/T (n 4), read-out: Cmax (SD)): 4.63 ng/mL | Tmax (oral, 40 mg/day, ABCB1 rs1045642 T>C, T/T (n 4), read-out: Tmax (SD)): 9.5 h | AUC(0-t) (oral, 40 mg/day, ABCB1 rs1128503 T>C, C/C (n 8), read-out: AUClast (SD)): 34.6 ng·h/mL | Cmax (oral, 40 mg/day, ABCB1 rs1128503 T>C, C/C (n 8), read-out: Cmax (SD)): 4.84 ng/mL | Tmax (oral, 40 mg/day, ABCB1 rs1128503 T>C, C/C (n 8), read-out: Tmax (SD)): 12.9 h | AUC(0-t) (oral, 40 mg/day, ABCB1 rs1128503 T>C, C/T (n 6), read-out: AUClast (SD)): 46.4 ng·h/mL | Cmax (oral, 40 mg/day, ABCB1 rs1128503 T>C, C/T (n 6), read-out: Cmax (SD)): 5.24 ng/mL | Tmax (oral, 40 mg/day, ABCB1 rs1128503 T>C, C/T (n 6), read-out: Tmax (SD)): 9.5 h | AUC(0-t) (oral, 40 mg/day, ABCB1 rs1128503 T>C, T/T (n 2), read-out: AUClast (SD)): 60.9 ng·h/mL | Cmax (oral, 40 mg/day, ABCB1 rs1128503 T>C, T/T (n 2), read-out: Cmax (SD)): 8.35 ng/mL | Tmax (oral, 40 mg/day, ABCB1 rs1128503 T>C, T/T (n 2), read-out: Tmax (SD)): 3 h | AUC(0-t) (oral, 40 mg/day, ABCB1 rs2032582 G>T, G/G (n 8), read-out: AUClast (SD)): 34.6 ng·h/mL | Cmax (oral, 40 mg/day, ABCB1 rs2032582 G>T, G/G (n 8), read-out: Cmax (SD)): 4.84 ng/mL | Tmax (oral, 40 mg/day, ABCB1 rs2032582 G>T, G/G (n 8), read-out: Tmax (SD)): 12.9 h | AUC(0-t) (oral, 40 mg/day, ABCB1 rs2032582 G>T, G/T (n 6), read-out: AUClast (SD)): 46.4 ng·h/mL | Cmax (oral, 40 mg/day, ABCB1 rs2032582 G>T, G/T (n 6), read-out: Cmax (SD)): 5.24 ng/mL | Tmax (oral, 40 mg/day, ABCB1 rs2032582 G>T, G/T (n 6), read-out: Tmax (SD)): 9.5 h | AUC(0-t) (oral, 40 mg/day, ABCB1 rs2032582 G>T, T/T (n 2), read-out: AUClast (SD)): 60.9 ng·h/mL | Cmax (oral, 40 mg/day, ABCB1 rs2032582 G>T, T/T (n 2), read-out: Cmax (SD)): 8.35 ng/mL | Tmax (oral, 40 mg/day, ABCB1 rs2032582 G>T, T/T (n 2), read-out: Tmax (SD)): 3 h | AUC(0-t) (oral, 40 mg/day, ABCB1 rs4148738 C>T, C/C (n 2), read-out: AUClast (SD)): 60.9 ng·h/mL | Cmax (oral, 40 mg/day, ABCB1 rs4148738 C>T, C/C (n 2), read-out: Cmax (SD)): 8.35 ng/mL | Tmax (oral, 40 mg/day, ABCB1 rs4148738 C>T, C/C (n 2), read-out: Tmax (SD)): 3 h | AUC(0-t) (oral, 40 mg/day, ABCB1 rs4148738 C>T, T/C (n 6), read-out: AUClast (SD)): 46.4 ng·h/mL | Cmax (oral, 40 mg/day, ABCB1 rs4148738 C>T, T/C (n 6), read-out: Cmax (SD)): 5.24 ng/mL | Tmax (oral, 40 mg/day, ABCB1 rs4148738 C>T, T/C (n 6), read-out: Tmax (SD)): 9.5 h | AUC(0-t) (oral, 40 mg/day, ABCB1 rs4148738 C>T, T/T (n 8), read-out: AUClast (SD)): 34.6 ng·h/mL | Cmax (oral, 40 mg/day, ABCB1 rs4148738 C>T, T/T (n 8), read-out: Cmax (SD)): 4.84 ng/mL | Tmax (oral, 40 mg/day, ABCB1 rs4148738 C>T, T/T (n 8), read-out: Tmax (SD)): 12.9 h | AUC(0-t) (oral, 40 mg, CYP2C8 rs10509681 T/C (n 3), read-out: AUClast (SD)): 46.9 ng·h/mL | Cmax (oral, 40 mg, CYP2C8 rs10509681 T/C (n 3), read-out: Cmax (SD)): 7.06 ng/mL | Tmax (oral, 40 mg, CYP2C8 rs10509681 T/C (n 3), read-out: Tmax (h, SD)): 16.7 h | AUC(0-t) (oral, 40 mg, CYP2C8 rs10509681 T/T (n 13), read-out: AUClast (SD)): 41.2 ng·h/mL | Cmax (oral, 40 mg, CYP2C8 rs10509681 T/T (n 13), read-out: Cmax (SD)): 5.05 ng/mL | Tmax (oral, 40 mg, CYP2C8 rs10509681 T/T (n 13), read-out: Tmax (h, SD)): 8.92 h | AUC(0-t) (oral, 40 mg, CYP2C8 rs11572080 C/C (n 13), read-out: AUClast (SD)): 41.2 ng·h/mL | Cmax (oral, 40 mg, CYP2C8 rs11572080 C/C (n 13), read-out: Cmax (SD)): 5.05 ng/mL | Tmax (oral, 40 mg, CYP2C8 rs11572080 C/C (n 13), read-out: Tmax (h, SD)): 8.92 h | AUC(0-t) (oral, 40 mg, CYP2C8 rs11572080 C/T (n 3), read-out: AUClast (SD)): 46.9 ng·h/mL | Cmax (oral, 40 mg, CYP2C8 rs11572080 C/T (n 3), read-out: Cmax (SD)): 7.06 ng/mL | Tmax (oral, 40 mg, CYP2C8 rs11572080 C/T (n 3), read-out: Tmax (h, SD)): 16.7 h | AUC(0-t) (oral, 40 mg, CYP2C9 *1/*1, NM (n = 8), mean ± SD, read-out: AUClast): 54.5 ± 49.4 ng·h/mL | Cmax (oral, 40 mg, CYP2C9 *1/*1, NM (n = 8), mean ± SD, read-out: Cmax): 7.28 ± 8.71 ng/mL | Tmax (oral, 40 mg, CYP2C9 *1/*1, NM (n = 8), mean ± SD, read-out: Tmax): 8 ± 7.15 h | AUC(0-t) (oral, 40 mg, CYP2C9 *2/*3, *3/*3, PM (n = 2), mean ± SD, read-out: AUClast): 18.6 ± 22.5 ng·h/mL | Cmax (oral, 40 mg, CYP2C9 *2/*3, *3/*3, PM (n = 2), mean ± SD, read-out: Cmax): 3.11 ± 3.75 ng/mL | Tmax (oral, 40 mg, CYP2C9 *2/*3, *3/*3, PM (n = 2), read-out: Tmax): 24 h | AUC(0-t) (oral, 40 mg, CYP2C19 *1/*1, NM (n = 6), mean ± SD, read-out: AUClast): 33.1 ± 48.1 ng·h/mL | Cmax (oral, 40 mg, CYP2C19 *1/*1, NM (n = 6), mean ± SD, read-out: Cmax): 5.25 ± 8.82 ng/mL | Tmax (oral, 40 mg, CYP2C19 *1/*1, NM (n = 6), mean ± SD, read-out: Tmax): 15.5 ± 9.95 h
